In US8354447B2, “mGLU receptors antagonists for treating disorders associated with mGLU receptors including addiction and depression” (The Scripps Research Institute, priority 2002, dated 2013):
Like-named read-outs stand apart in the source and are kept apart here.

Columns and labels:
Male DBA/2J mice = assay: Intravenous nicotine self-administration in drug-naive mice; assay type: in vivo, mouse
Experimental: Acute self-administration of nicotine was carried out using a previously described method (Semenova et al. 1995, 1999; Kuzmin et al. 1996a, 1997). The tails of the mice were fixed to the surface of the apparatus during the testing sessions to allow drug delivery; the fixing of the tail allowed the mice to move all of their four paws, head and entire body. […] The only cue associated with the delivery of the drug or vehicle infusion was the noise of the pump. Mice were tested either once or twice, with approximately one month between each test. The second test only occurred in a subset of the original set of mice (2-7 pairs of mice from each of the original groups). This was done to increase the number of subjects/condition, and involved randomly assigning and testing these mice under a different set of conditions than in the original test (i.e., different nicotine and/or MPEP dose).
Saline or one of four nicotine doses (0.016, 0.048, 0.16, 0.48 μg/inf) were made available to different groups of animals. Each group consisted of 9-17 pairs of animals, including 2-7 mice per group that had previously undergone one testing session at least one month previously (see above). Pre-treatment with MPEP (0, 5, 10, 20 mg/kg intraperitoneally) occurred 15 minutes prior to the initiation of the test session.
Data analyses were based on the comparison of both active and passive mouse nose-pokes in each pair, using the formula: R=log(AT/PT)−log(ABL/PBL), where (AT/PT) is the ratio of the total number of active versus passive mouse nose-pokes during the 30-min test, and (ABL/PBL) is the ratio of the total number of active versus passive mouse nose-pokes during the 10-min pre-test. […] Some data-points (9/237 pairs of mice) were excluded from the final analyses based on whether or not they lay within 2 standard deviations of the group mean for that specific condition. Nicotine self-administration data, obtained after saline pre-treatment, were analyzed using a one-way ANOVA with nicotine (4 levels) defined as the between-subjects factor. R-criterion data were analyzed using two-way ANOVAs with MPEP dose (4 levels) and nicotine dose (4 levels) defined as the between-subjects factors. Pre-planned R-criterion data analyses were performed using one-way ANOVAs for each available dose of self-administered nicotine and saline, with MPEP dose (4 levels) defined as the between-subject factor. Appropriate individual comparisons were performed using the Student-Newman-Keuls post hoc test. […] Body weights and pre-test nose-poke activity levels were analyzed with three-way ANOVAs (nicotine dose, MPEP dose and mouse, i.e. active/passive, defined as between-subjects factors).

[1] = MPEP 5 mg/kg, Nicotine 0 μg/inf
[2] = MPEP 5 mg/kg, Nicotine 0.016 μg/inf
[3] = MPEP 5 mg/kg, Nicotine 0.048 μg/inf
[4] = MPEP 5 mg/kg, Nicotine 0.16 μg/inf
[5] = MPEP 5 mg/kg, Nicotine 0.48 μg/inf
[6] = MPEP 10 mg/kg, Nicotine 0 μg/inf
[7] = MPEP 10 mg/kg, Nicotine 0.016 μg/inf
[8] = MPEP 10 mg/kg, Nicotine 0.048 μg/inf
[9] = MPEP 10 mg/kg, Nicotine 0.16 μg/inf
[10] = MPEP 10 mg/kg, Nicotine 0.48 μg/inf
[11] = MPEP 20 mg/kg, Nicotine 0 μg/inf
[12] = MPEP 20 mg/kg, Nicotine 0.016 μg/inf
[13] = MPEP 20 mg/kg, Nicotine 0.048 μg/inf
[14] = MPEP 20 mg/kg, Nicotine 0.16 μg/inf
[15] = MPEP 20 mg/kg, Nicotine 0.48 μg/inf
[16] = MPEP 0.01 mg/kg i.p., Nicotine-treated rats
[17] = MPEP 0.01 mg/kg i.p., Vehicle-treated rats
[18] = MPEP 0.05 mg/kg i.p., Nicotine-treated rats
[19] = MPEP 0.05 mg/kg i.p., Vehicle-treated rats
[20] = MPEP 0.1 mg/kg i.p., Nicotine-treated rats
[21] = MPEP 0.1 mg/kg i.p., Vehicle-treated rats
[22] = MPEP 0.5 mg/kg i.p., Nicotine-treated rats
[23] = MPEP 0.5 mg/kg i.p., Vehicle-treated rats
[24] = MPEP 1 mg/kg i.p., Nicotine-treated rats
[25] = MPEP 1 mg/kg i.p., Vehicle-treated rats
[26] = MPEP 2 mg/kg i.p., Nicotine-treated rats
[27] = MPEP 2 mg/kg i.p., Vehicle-treated rats
[28] = MPEP 3 mg/kg i.p., Nicotine-treated rats
[29] = MPEP 3 mg/kg i.p., Vehicle-treated rats

CN1CCCC1c1cccnc1 (single isomer, unassigned; (-)) [nicotine, (−)-1-methyl-2-(3-pyridyl) pyrrolidine]
self-administration (R-criterion) (Male DBA/2J mice; 0.048 μg/inf nicotine, saline pretreatment): significantly different from saline administration

Cc1cccc(C#Cc2ccccc2)n1 [MPEP, 2-methyl-6-(phenylethynyl)-pyridine]
total self-injected nicotine dose (Male DBA/2J mice; 0.048 μg/inf nicotine): no significant effect of MPEP on total self-injected nicotine dose | R-criterion (Male DBA/2J mice; 20 mg/kg MPEP, 0.048 μg/inf nicotine): a trend for 20 mg/kg MPEP to decrease the R-criterion below zero | nose-pokes, active pre-test (Male DBA/2J mice; [1]): 8.19 ± 1.03 responses per minute | nose-pokes, active test (Male DBA/2J mice; [1]): 4.99 ± 1.17 responses per minute | nose-pokes, passive pre-test (Male DBA/2J mice; [1]): 8.38 ± 0.96 responses per minute | nose-pokes, passive test (Male DBA/2J mice; [1]): 6.41 ± 1.38 responses per minute | nose-pokes, active pre-test (Male DBA/2J mice; [2]): 7.86 ± 0.87 responses per minute | nose-pokes, active test (Male DBA/2J mice; [2]): 2.62 ± 0.49 responses per minute | nose-pokes, passive pre-test (Male DBA/2J mice; [2]): 8.01 ± 0.91 responses per minute | nose-pokes, passive test (Male DBA/2J mice; [2]): 3.46 ± 0.74 responses per minute | nose-pokes, active pre-test (Male DBA/2J mice; [3]): 9.13 ± 1.37 responses per minute | nose-pokes, active test (Male DBA/2J mice; [3]): 3.43 ± 0.67 responses per minute | nose-pokes, passive pre-test (Male DBA/2J mice; [3]): 8.93 ± 1.36 responses per minute | nose-pokes, passive test (Male DBA/2J mice; [3]): 4.45 ± 1.06 responses per minute | nose-pokes, active pre-test (Male DBA/2J mice; [4]): 8.32 ± 0.94 responses per minute | nose-pokes, active test (Male DBA/2J mice; [4]): 4.67 ± 0.95 responses per minute | nose-pokes, passive pre-test (Male DBA/2J mice; [4]): 8.48 ± 3.31 responses per minute | nose-pokes, passive test (Male DBA/2J mice; [4]): 4.32 ± 2.37 responses per minute | nose-pokes, active pre-test (Male DBA/2J mice; [5]): 8.12 ± 1.17 responses per minute | nose-pokes, active test (Male DBA/2J mice; [5]): 3.04 ± 0.73 responses per minute | nose-pokes, passive pre-test (Male DBA/2J mice; [5]): 8.58 ± 1.38 responses per minute | nose-pokes, passive test (Male DBA/2J mice; [5]): 3.25 ± 0.88 responses per minute | nose-pokes, active pre-test (Male DBA/2J mice; [6]): 7.95 ± 0.99 responses per minute | nose-pokes, active test (Male DBA/2J mice; [6]): 4.92 ± 1.1 responses per minute | nose-pokes, passive pre-test (Male DBA/2J mice; [6]): 8.00 ± 1.06 responses per minute | nose-pokes, passive test (Male DBA/2J mice; [6]): 5.86 ± 1.56 responses per minute | nose-pokes, active pre-test (Male DBA/2J mice; [7]): 7.79 ± 0.83 responses per minute | nose-pokes, active test (Male DBA/2J mice; [7]): 6.48 ± 1.05 responses per minute | nose-pokes, passive pre-test (Male DBA/2J mice; [7]): 8.22 ± 0.87 responses per minute | nose-pokes, passive test (Male DBA/2J mice; [7]): 4.26 ± 0.94 responses per minute | nose-pokes, active pre-test (Male DBA/2J mice; [8]): 7.43 ± 0.98 responses per minute | nose-pokes, active test (Male DBA/2J mice; [8]): 3.92 ± 1.18 responses per minute | nose-pokes, passive pre-test (Male DBA/2J mice; [8]): 8.06 ± 1.39 responses per minute | nose-pokes, passive test (Male DBA/2J mice; [8]): 5.83 ± 1.72 responses per minute | nose-pokes, active pre-test (Male DBA/2J mice; [9]): 7.12 ± 0.66 responses per minute | nose-pokes, active test (Male DBA/2J mice; [9]): 4.19 ± 0.81 responses per minute | nose-pokes, passive pre-test (Male DBA/2J mice; [9]): 7.20 ± 0.69 responses per minute | nose-pokes, passive test (Male DBA/2J mice; [9]): 4.62 ± 0.82 responses per minute | nose-pokes, active pre-test (Male DBA/2J mice; [10]): 7.49 ± 0.86 responses per minute | nose-pokes, active test (Male DBA/2J mice; [10]): 3.58 ± 0.73 responses per minute | nose-pokes, passive pre-test (Male DBA/2J mice; [10]): 7.48 ± 0.88 responses per minute | nose-pokes, passive test (Male DBA/2J mice; [10]): 3.81 ± 0.47 responses per minute | nose-pokes, active pre-test (Male DBA/2J mice; [11]): 6.98 ± 1.18 responses per minute | nose-pokes, active test (Male DBA/2J mice; [11]): 5.96 ± 1.69 responses per minute | nose-pokes, passive pre-test (Male DBA/2J mice; [11]): 8.50 ± 1.43 responses per minute | nose-pokes, passive test (Male DBA/2J mice; [11]): 6.33 ± 1.66 responses per minute | nose-pokes, active pre-test (Male DBA/2J mice; [12]): 7.10 ± 0.87 responses per minute | nose-pokes, active test (Male DBA/2J mice; [12]): 5.48 ± 1.09 responses per minute | nose-pokes, passive pre-test (Male DBA/2J mice; [12]): 7.35 ± 0.85 responses per minute | nose-pokes, passive test (Male DBA/2J mice; [12]): 8.77 ± 1.85 responses per minute | nose-pokes, active pre-test (Male DBA/2J mice; [13]): 8.36 ± 1.07 responses per minute | nose-pokes, active test (Male DBA/2J mice; [13]): 3.56 ± 1.04 responses per minute | nose-pokes, passive pre-test (Male DBA/2J mice; [13]): 8.31 ± 1.28 responses per minute | nose-pokes, passive test (Male DBA/2J mice; [13]): 5.29 ± 1.11 responses per minute | nose-pokes, active pre-test (Male DBA/2J mice; [14]): 7.50 ± 1.25 responses per minute | nose-pokes, active test (Male DBA/2J mice; [14]): 5.06 ± 1.52 responses per minute | nose-pokes, passive pre-test (Male DBA/2J mice; [14]): 7.56 ± 1.32 responses per minute | nose-pokes, passive test (Male DBA/2J mice; [14]): 7.97 ± 1.76 responses per minute | nose-pokes, active pre-test (Male DBA/2J mice; [15]): 7.31 ± 0.98 responses per minute | nose-pokes, active test (Male DBA/2J mice; [15]): 4.67 ± 1.22 responses per minute | nose-pokes, passive pre-test (Male DBA/2J mice; [15]): 7.08 ± 0.94 responses per minute | nose-pokes, passive test (Male DBA/2J mice; [15]): 4.35 ± 0.98 responses per minute | nicotine self-administration (R-criterion) (Male DBA/2J mice; MPEP 5, 10, 20 mg/kg, 0.048 μg/inf nicotine): significantly reduced nicotine self-administration at all doses tested | nose-poke responding (Male DBA/2J mice; active mice, 0.048 μg/inf nicotine): significantly decreased nose-poke responding in the active mice | ICSS Thresholds (male Wistar rats; [16]): 93.86 ± 6.0 percentage of baseline | ICSS response Latencies (male Wistar rats; [16]): 101.50 percentage of baseline | ICSS Thresholds (male Wistar rats; [17]): 98.75 ± 3.5 percentage of baseline | ICSS response Latencies (male Wistar rats; [17]): 99.75 ± 3.4 percentage of baseline | ICSS Thresholds (male Wistar rats; [18]): 94.11 ± 2.6 percentage of baseline | ICSS response Latencies (male Wistar rats; [18]): 103.48 percentage of baseline | ICSS Thresholds (male Wistar rats; [19]): 101.27 ± 4.1 percentage of baseline | ICSS response Latencies (male Wistar rats; [19]): 104.87 ± 3.3 percentage of baseline | ICSS Thresholds (male Wistar rats; [20]): 103.84 ± 1.2 percentage of baseline | ICSS response Latencies (male Wistar rats; [20]): 102.54 percentage of baseline | ICSS Thresholds (male Wistar rats; [21]): 105.13 ± 3.2 percentage of baseline | ICSS response Latencies (male Wistar rats; [21]): 105.13 ± 4.8 percentage of baseline | ICSS Thresholds (male Wistar rats; [22]): 104.02 ± 2.2 percentage of baseline | ICSS response Latencies (male Wistar rats; [22]): 99.47 percentage of baseline | ICSS Thresholds (male Wistar rats; [23]): 103.01 ± 2.7 percentage of baseline | ICSS response Latencies (male Wistar rats; [23]): 103.20 ± 4.4 percentage of baseline | ICSS Thresholds (male Wistar rats; [24]): 105.81 ± 3.3 percentage of baseline | ICSS response Latencies (male Wistar rats; [24]): 99.12 percentage of baseline | ICSS Thresholds (male Wistar rats; [25]): 103.70 ± 3.0 percentage of baseline | ICSS response Latencies (male Wistar rats; [25]): 100.72 ± 2.1 percentage of baseline | ICSS Thresholds (male Wistar rats; [26]): 121.17 ± 6.2 percentage of baseline | ICSS response Latencies (male Wistar rats; [26]): 101.31 percentage of baseline | ICSS Thresholds (male Wistar rats; [27]): 111.21 ± 2.3 percentage of baseline | ICSS response Latencies (male Wistar rats; [27]): 107.60 ± 2.6 percentage of baseline | ICSS Thresholds (male Wistar rats; [28]): 119.11 ± 5.5 percentage of baseline | ICSS response Latencies (male Wistar rats; [28]): 102.22 percentage of baseline | ICSS Thresholds (male Wistar rats; [29]): 111.52 ± 4.8 percentage of baseline | ICSS response Latencies (male Wistar rats; [29]): 103.58 ± 2.3 percentage of baseline | ICSS reward thresholds (male Wistar rats; MPEP 0.01-0.1 mg/kg, nicotine-treated or control rats): did not affect reward thresholds | ICSS reward thresholds (male Wistar rats; MPEP 0.5-3 mg/kg): elevated reward thresholds in nicotine-treated and control rats | ICSS response Latencies (male Wistar rats; MPEP 0.5-3 mg/kg, either group): had no effect on response latencies
